Laboratory results as given in patent publication US11236122B2, “Triterpene amine derivatives” (DFH THERAPEUTICS, priority 2018, dated 2022).

Legend:
HIV-1 clade C K3016 [1] = test: Viral infectivity assay in TZM-bl cells (luciferase), K3016; type: cell-based; settings: DMSO = 100
Description: (§1) Plasmids, tissue culture and transfections. HIV-1 clade B molecular clone NL4-3 and cade C clones K3016, ZM247 were obtained from Dr. Christina Ochsenbauer, University of Alabama, USA. Both K3016 and ZM247 were constructed using viral strains from South Africa. The HIV-1 clade C molecular clone pindieC1 was obtained from Dr. Uday Ranga, JNCASR, India. This clone was constructed using an HIV strain from India. HEK-293T and TZM-bl cells were propagated in Dulbecco's modified Eagle's medium (DM4EM) containing 10% fetal bovine serum (FBS). HUT-R5 cells were propagated in RPM 1640 medium supplemented with 10% FBS. For transfections, HEK-293T cells were grown in six well plates to about 80% confluency. Cells were transfected using Lipofectamine 2000 (invitrogen, USA) following manufacturer's recommendations. For viral replication assays, HUT-R5 T-cells were transfected using DEAE dextran as described in Waheed, A. A., Ono, A., and Freed, E. O.; Methods for the study of HIV-1 assembly; Methods Mol. Biol. Clifton N.J. 485, 163-184 (2009).
(§2) Preparation of viral stocks. Virus stocks were prepared by transfecting HEK-293T cells with HIV-1 DNAs (3 μg). 24 h post-transfection, the culture medium was replaced with fresh DMEM and incubated for another 2 h. Compounds tested were maintained in the culture throughout transfection. The culture supernatant was centrifuged at 845×g for 3 min to remove cellular debris. The clarified supernatants were filtered (pore size 0.45 µm filter disc) to remove residual cellular contaminants. For determination of viral infectivity, the un-concentrated virus was used to infect TZM-bl cells. For the CA-SP1 accumulation assay, the virus was pelleted by ultra-centrifugation at 210,100×g for 1 h at 4° C. using SW41Ti rotor (Beckman Coulter, USA).
Viral infectivity assays. The virus stocks were normalized for p24 antigen using an HIV-1 p24 Antigen Capture kit (ABL, USA). Equal amounts of virus were used to infect TZM-bl cells (5×10^4/well) in the presence of 20 μg DEAE-dextran per mL in 24 well plate. Single-round infectivity assays were performed as previously described in Checkley, M. A. et al; Reevaluation of the Requirement for TIP47 in Human Immunodeficiency Virus Type 1 Envelope Glycoprotein Incorporation; J. Virol. 87, 3561-3570 (2013). The luciferase activity in the cell lysates was measured using the Steady-Glo luciferase assay kit (Promega, USA) following manufacturer's recommendations.

HIV-1 clade C K3016 [2] = test: CA-SP1 accumulation assay (immunoblot), clade C K3016; type: cell-based
Protocol: Compound evaluation was performed against a panel of HIV-1 Clade C isolates K3016, pindieC1, and ZM247. The three isolates all contain the SP1-A7V. Clade B NL4-3 was included as the […] control.
as §1, §2
CA-SP1 accumulation assay. To measure accumulation of CA-SP1, immunoblot analysis of virus-associated proteins was performed. The virus pellet was resuspended in radioimmunoprecipitation assay (RIPA) buffer (50 mM Tris-HCl pH 8.0, 150 mM sodium chloride, 1.0% NP-40, 0.5% sodium deoxycholate, 0.1% SDS) containing 1×protease inhibitor cocktail (Roche, Germany). The viral lysates were subjected to SDS-polyacrylamide gel electrophoresis (15% gel). Proteins were transferred to polyvinylidene difluoride membranes and reacted with HIV-IgG obtained from the NIH AIDS Reagent Program (catalog no. 3957) followed by incubation with HRP-conjugated anti-human secondary antibodies (GE Healthcare, UK). The proteins were visualized by enhanced chemiluminescence (Pierce, USA) and the bands were quantified using ImageJ software (http://imagej.nih.gov/ij/).

| SMILES | % Relative Infectivity K3016 10 nM (HIV-1 clade C K3016 [1]) [%] | % Relative Infectivity K3016 100 nM (HIV-1 clade C K3016 [1]) [%] | % CA-SP1 Accumulation K3016 10 nM (HIV-1 clade C K3016 [2]) [%] | % CA-SP1 Accumulation K3016 100 nM (HIV-1 clade C K3016 [2]) [%] |
| --- | --- | --- | --- | --- |
| C=C(C)[C@@H]1CC[C@]2(CCNCCN3CCS(=O)(=O)CC3)CC[C@]3(C)[C@H](CC[C@@H]4[C@@]5(C)CC[C@H](OC(=O)CC(C)(C)C(=O)O)C(C)(C)[C@@H]5CC[C@]43C)[C@@H]12 [Compound 51ee, (3β)-17-[[[2-[2-(1,1-Dioxothiomorpholin-4-yl)]Ethyl]Amino]Ethyl]-28-norlup-20(29)-en-3-ol, 3-(1-Hydrogen 2,2-Dimethylbutanedioate)] | 32.0 | 7.8 | 53.8 | 66.4 |
| C=C(C)[C@@H]1CC[C@]2(CCNCCN3CCN(S(C)(=O)=O)CC3)CC[C@]3(C)[C@H](CC[C@@H]4[C@@]5(C)CC[C@H](OC(=O)CC(C)(C)C(=O)O)C(C)(C)[C@@H]5CC[C@]43C)[C@@H]12 [Compound 51ff, (3β)-17-[2-[[2-[4-(Methylsulfonyl)piperazin-1-yl]ethyl]amino]ethyl]-28-norlup-20(29)-en-3-ol, 3-(1-Hydrogen 2,2-Dimethylbutanedioate)] | 43.3 | 24.4 | 49.8 | 54.4 |
| C=C(C)[C@@H]1CC[C@]2(CCNCCN3CCN(Cc4ccccc4)CC3)CC[C@]3(C)[C@H](CC[C@@H]4[C@@]5(C)CC[C@H](OC(=O)CC(C)(C)C(=O)O)C(C)(C)[C@@H]5CC[C@]43C)[C@@H]12 [Compound 51hh, (3β)-17-[2-[[2-[4-(Phenylmethyl)piperazin-1-yl]ethyl]amino]ethyl]-28-norlup-20(29)-en-3-ol, 3-(1-Hydrogen 2,2-Dimethylbutanedioate)] | 48.6 | 32.3 | 35.8 | 62.9 |
